# In patent publication US9045483B2, “Inhibition of small ubiquitin-like modifier enzymes with substituted pyrrolo[2,3-b]quinoxalines” (City of Hope, priority 2010, dated 2015):
# “Also recorded” adds a separate entry of the source. Read-outs that look alike come from different tables or passages of the source.
# Columns and labels:
# SUMO E1 [1] = biological target: T1, SUMO E1 (Homo sapiens (Human), UniProt Q9UBT2); conditions: in the presence of Mg2+; read-out: Kd of ATP binding to E1; cited from earlier work
# SUMO E1 [2] = biological target: T1, SUMO E1; assay: SUMO E1 inhibition, formation of the Ubc9-SUMO thioester (biochemical assay)
# BRCA1 = BRCA1 colocalization with γH2AX in IR-treated cells; type: cell-based; conditions: 20 μM, 18 hours, 1 Gy
# Source text: (Green: BRCA1; Red: γH2AX).
# Fa2N-4 cells = assay: Toxicity on immortalized human hepatocytes, cellular ATP viability assay; type: cell-based; conditions: Fa2N-4, concentrations up to 50 μM, 24 hrs
# Description: FIG. 9 illustrates the toxicity of the SUMO inhibitor on normal human liver cells. Immortalized human hepatocytes, Fa2N-4 cells (XenoTech) were seeded at ˜50-60K cells/well, and incubated with a range of concentrations (0.01-50 μM) 1, in duplicate, for 24 hrs at 37° C., 5% CO2. Cell viability was determined by cellular ATP levels using the Luminescence ATP Detection Assay System (Tecan).
# SUMO E1 [3] = biological target: T1, SUMO E1; assay: NMR saturation transfer difference (STD) competition with ATP; type: binding
# Source text: In (A), ATP spectra with assignments indicated, and the percentage of STD effects indicated for each resonance. Red spectrum indicates 2 s saturation at −30 ppm (control), blue spectrum (underneath red) indicates 2 s saturation of protein signals at 0 ppm, and green spectrum (bottom) indicates the difference between the red and blue spectra. […] […] The corresponding STD spectra are color-coded as indicated to the right. A region of the spectrum covering H2 of ATP and H12 and H13 from the compound are shown, with the H2 signal of ATP expanded in the inset. […] The titration data was used to estimate Kd of the compound.
# [4] = tested on: MCF7, H1299, DLD1 and SJSA cancer cell lines; assay: Sensitization of cancer cell lines to irradiation, MTS cell survival assay; type: cell-based; conditions: for sensitization of cancer cell lines to radiation: drug 4 hours, then 4 Gy
# Description: The cells were treated with different doses of the drug for 4 hours, followed by irradiation with 4 Gy and incubation for an additional 68 hours. […] Cell survival was assessed by MTS assays
# Quinoxaline 1 was added to cultures of various cancer cell lines for 4 hours, after which cells were irradiated at 4 Gy. Forty-eight hours after irradiation, cell viability was measured by MTS assay.
# ubiquitin E1 = ubiquitin E1 (Homo sapiens (Human), UniProt P22314); conditions: Ubc5-ubiquitin thioester vs Ubc9-SUMO thioester
# [5] = tested on: RanGAP1 stable SUMOylation in U20S and DLD1 cells; assay: Stable SUMOylation, RanGAP1 and RanBP2 localization by immunohistochemistry; type: cell-based; conditions: 18 hours
# Description: Cells were treated with the compound at indicated concentration for 18 hours, and then localization of RanGAP1 and RanBP2 was detected by immunohistochemistry. Nuclei are stained with DAPI.
# [6] = tested on: global SUMOylation in HT29, HCT116 and U373 cells; assay: Global SUMOylation in cancer cell lines, Western blot with anti-SUMO2/3 antibodies; type: cell-based; conditions: 18 hours; for inhibition of SUMOylation in cells: various concentrations, HCT116, HT29, U373
# Description: Western blots (probed with anti-SUMO2/3 antibodies) of cell lysates from HT29, HCT116 and U373 cells treated with compound 1. SUMO2/3 modifies many proteins as poly-SUMO chains, and is detected as high molecular weight smears. 16c indicates the control compound 2 used at concentrations of 16 μM.
# Quinoxaline 1 or 2 was added to cell culture media at various concentrations for 18 hours, after which SUMOylated proteins were detected using anti-SUMO antibodies. […] Thus, quinoxaline 1 has potent and specific inhibitory effects in various cancer cell lines.
# HIV = type: cell-based
# 53BP1 = 53BP1 colocalization with γH2AX at DSB sites in IR-treated cells; type: cell-based; conditions: 20 μM, 18 hours, 1 Gy, 1 hour recovery
# Source text: (Green: γH2AX; Red: 53BP1).
# [7] = in vitro, read-out: IC50 for SUMO E1
# T1 sequence (Q9UBT2 whole entry): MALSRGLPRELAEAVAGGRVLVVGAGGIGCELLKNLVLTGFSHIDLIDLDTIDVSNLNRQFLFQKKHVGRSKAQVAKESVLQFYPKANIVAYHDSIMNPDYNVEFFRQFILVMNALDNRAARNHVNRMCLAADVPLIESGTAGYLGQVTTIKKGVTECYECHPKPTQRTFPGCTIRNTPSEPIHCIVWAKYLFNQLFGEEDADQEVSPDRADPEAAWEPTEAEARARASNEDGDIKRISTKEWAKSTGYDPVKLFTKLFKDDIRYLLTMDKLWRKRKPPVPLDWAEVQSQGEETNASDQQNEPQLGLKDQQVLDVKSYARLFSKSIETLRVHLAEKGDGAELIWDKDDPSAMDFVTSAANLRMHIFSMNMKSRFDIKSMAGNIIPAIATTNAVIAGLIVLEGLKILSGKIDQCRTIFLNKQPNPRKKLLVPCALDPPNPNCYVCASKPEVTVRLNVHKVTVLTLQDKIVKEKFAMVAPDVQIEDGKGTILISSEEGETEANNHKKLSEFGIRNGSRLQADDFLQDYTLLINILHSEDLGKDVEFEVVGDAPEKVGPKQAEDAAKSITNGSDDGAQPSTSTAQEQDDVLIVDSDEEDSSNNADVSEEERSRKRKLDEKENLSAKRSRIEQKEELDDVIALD
# T1 sequence (Q9UBE0 whole entry partner): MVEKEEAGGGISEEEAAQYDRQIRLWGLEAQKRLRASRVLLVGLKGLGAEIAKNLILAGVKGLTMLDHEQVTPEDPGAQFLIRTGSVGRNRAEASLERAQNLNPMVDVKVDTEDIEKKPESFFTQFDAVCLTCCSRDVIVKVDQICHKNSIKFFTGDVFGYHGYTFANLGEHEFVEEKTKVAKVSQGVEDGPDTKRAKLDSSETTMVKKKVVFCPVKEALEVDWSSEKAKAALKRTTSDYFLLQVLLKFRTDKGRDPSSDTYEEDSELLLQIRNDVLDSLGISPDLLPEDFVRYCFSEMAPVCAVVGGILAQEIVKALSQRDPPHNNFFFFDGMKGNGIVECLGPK
# Sequence of ubiquitin E1 (P22314 whole entry, looked up): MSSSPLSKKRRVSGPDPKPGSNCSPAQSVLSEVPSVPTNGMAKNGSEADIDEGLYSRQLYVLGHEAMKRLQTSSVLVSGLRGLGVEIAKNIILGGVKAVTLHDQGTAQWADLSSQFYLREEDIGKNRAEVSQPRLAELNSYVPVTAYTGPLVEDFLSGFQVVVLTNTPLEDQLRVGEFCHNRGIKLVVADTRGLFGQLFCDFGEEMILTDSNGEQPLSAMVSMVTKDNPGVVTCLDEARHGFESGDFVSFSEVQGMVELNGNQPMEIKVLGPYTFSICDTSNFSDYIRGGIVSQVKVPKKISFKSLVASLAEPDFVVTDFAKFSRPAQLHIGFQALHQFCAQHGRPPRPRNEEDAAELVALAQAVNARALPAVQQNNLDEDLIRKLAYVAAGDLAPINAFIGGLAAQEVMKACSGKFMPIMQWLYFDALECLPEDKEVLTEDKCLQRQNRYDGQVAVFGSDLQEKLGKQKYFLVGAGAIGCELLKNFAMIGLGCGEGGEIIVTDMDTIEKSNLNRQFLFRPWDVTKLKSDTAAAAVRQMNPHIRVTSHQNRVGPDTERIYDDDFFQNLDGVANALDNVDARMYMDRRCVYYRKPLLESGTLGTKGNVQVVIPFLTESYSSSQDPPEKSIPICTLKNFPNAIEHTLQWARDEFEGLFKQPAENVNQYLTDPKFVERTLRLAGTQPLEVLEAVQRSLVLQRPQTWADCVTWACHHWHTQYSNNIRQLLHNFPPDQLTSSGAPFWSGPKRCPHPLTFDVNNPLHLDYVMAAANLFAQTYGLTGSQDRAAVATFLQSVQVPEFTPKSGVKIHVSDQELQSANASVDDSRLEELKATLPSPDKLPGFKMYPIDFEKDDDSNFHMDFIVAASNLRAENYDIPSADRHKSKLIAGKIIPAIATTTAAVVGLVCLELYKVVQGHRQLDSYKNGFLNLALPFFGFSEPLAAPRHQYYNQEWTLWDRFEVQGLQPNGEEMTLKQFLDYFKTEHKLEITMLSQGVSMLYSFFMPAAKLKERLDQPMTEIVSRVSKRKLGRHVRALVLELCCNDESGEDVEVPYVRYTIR
smiles,measurement,setting,value
Nc1ncnc2c1ncn2[C@@H]1O[C@H](COP(=O)(O)OP(=O)(O)OP(=O)(O)O)[C@@H](O)[C@H]1O [ATP],Kd,SUMO E1 [1],~0.2 µM
CCCCn1c(NS(=O)(=O)c2ccccc2)c(S(=O)(=O)c2ccc(C)cc2)c2nc3ccccc3nc21 [Tricyclic Compound 1],IC50,"SUMO E1 [2]; in vitro, listed as compound 1, read-out: IC50 for SUMO E1",~0.5 µM
same,IC50,SUMO E1 [2]; [7],0.5 µM
same,BRCA1 colocalization with γH2AX,"BRCA1; DLD1 cells, 1 hour recovery",inhibits BRCA1 colocalization with γH2AX
same,BRCA1 colocalization with γH2AX,"BRCA1; U20S cells, 1 hour",inhibits BRCA1 colocalization with γH2AX
same,toxicity to human hepatocytes,Fa2N-4 cells,did not cause significant toxicity
same,toxicity to human hepatocytes,Fa2N-4 cells; listed as Quinoxaline 1,no toxicity was detected
same,competition with ATP binding to E1,SUMO E1 [3],strong competition with ATP binding
same,reduction in the STD of ATP,"SUMO E1 [3]; 30 μM inhibitor, 80 μM ATP, 2 μM E1, 0.4 mM Mg2+",more than 60%
same,Kd,"SUMO E1 [3]; estimated from competitive STD data, read-out: Kd (inhibitor-enzyme dissociation constant)",~0.18 µM
same,competition with ATP binding to E1,SUMO E1 [3]; listed as quinoxaline 1,competed with the binding of ATP
same,toxicity in cancer cell lines,[4],induced some toxicity in selected cancer cell lines
same,sensitization of cancer cell lines to radiation,[4]; listed as MLS-0207587,significantly lower survival rate
same,sensitization of cancer cell lines to radiation,[4]; listed as Quinoxaline 1,significantly enhanced the sensitivity
same,IC50 for ubiquitin E1 relative to SUMO E1 (selectivity),ubiquitin E1,> 100 fold
same,IC50 for ubiquitin E1 relative to SUMO E1 (selectivity),ubiquitin E1; listed as quinoxaline 1,more than 100 fold
same,effect on stable SUMOylation,[5],does not disrupt stable SUMOylation
same,inhibition at 16 µM,[6]; 16 μM,> 80%
same,inhibition of SUMOylation in cells,[6],inhibits global SUMOylation in a dose-dependent manner
same,inhibition of SUMOylation in cells,[6]; listed as Quinoxaline 1,inhibited SUMOylation in a dose-dependent manner
same,inhibition of HIV infection,HIV,inhibited HIV infection in a dose dependent manner; also recorded: inhibits HIV infection in a dose-dependent manner
same,53BP1 colocalization with γH2AX,53BP1; DLD1 cells,inhibits 53BP1 colocalization with γH2AX
same,53BP1 colocalization with γH2AX,53BP1; U20S cells,inhibits 53BP1 colocalization with γH2AX
CCCCn1c(NC(=O)c2ccccc2Cl)c(C#N)c2nc3ccccc3nc21 [Tricyclic Compound 2],IC50,SUMO E1 [2]; [7],20 µM
CCCCn1c(NC(=O)c2ccccc2)c(C#N)c2nc3ccccc3nc21 [Tricyclic Compound 3],IC50,SUMO E1 [2]; [7],3.6 µM
CCCCn1c(NC(C)=O)c(C#N)c2nc3ccccc3nc21 [Tricyclic Compound 4],IC50,SUMO E1 [2]; [7],8.3 µM
N#Cc1c(NC(=O)c2ccccc2Cl)n(Cc2ccccc2)c2nc3ccccc3nc12 [Tricyclic Compound 5],IC50,SUMO E1 [2]; [7],25 µM
CCCCn1c(N)c(S(=O)(=O)c2ccccc2)c2nc3ccccc3nc21 [Tricyclic Compound 6],IC50,SUMO E1 [2]; [7],64 µM
CCCCn1c(NC(=O)c2ccccc2)c(S(=O)(=O)c2ccccc2)c2nc3ccccc3nc21 [Tricyclic Compound 7],IC50,SUMO E1 [2]; [7],98 µM
CCCCn1c(NC(=O)c2ccc(Cl)cc2)c(C#N)c2nc3cc(C)c(C)cc3nc21 [Tricyclic Compound 8],IC50,SUMO E1 [2]; [7],4.5 µM
CCCCNC(=O)c1c(NC(=O)c2ccccc2Cl)n(Cc2ccccc2)c2nc3ccccc3nc12 [Tricyclic Compound 9],IC50,SUMO E1 [2]; [7],1.1 µM
CCCCn1c(NC(=O)c2ccco2)c(C#N)c2nc3ccccc3nc21 [Tricyclic Compound 10],IC50,SUMO E1 [2]; [7],5.7 µM
CCCCn1c(NC(=O)c2ccccc2Cl)c(S(=O)(=O)c2ccccc2)c2nc3ccccc3nc21 [Tricyclic Compound 11],IC50,SUMO E1 [2]; [7],> 100 µM
C=CCn1c(NS(=O)(=O)c2ccccc2)c(S(=O)(=O)c2ccc(C)cc2)c2nc3ccccc3nc21 [Tricyclic Compound 12],IC50,SUMO E1 [2]; [7],0.5 µM
CCCCn1c(NC(=O)c2ccc(F)cc2)c(C#N)c2nc3ccccc3nc21 [Tricyclic Compound 13],IC50,"SUMO E1 [2]; -BSA, read-out: IC50(-BSA)",0.76 µM
